Results from patent US9700056B2.

What was measured:
[1] = system: Alternaria solani; assay: Alternaria test (tomatoes)/preventive; details: Table C, preventive, application rate 50 ppm a.i., evaluated 3 days after inoculation
Experimental: After the spray coating has dried on, the plants are inoculated with an aqueous spore suspension of Alternaria solani. The plants are then placed in an incubation cabinet at approximately 20° C. and a relative atmospheric humidity of 100%.
The test is evaluated 3 days after the inoculation.

[2] = system: Botrytis cinerea; assay: Botrytis test (beans)/preventive; details: Table D, preventive, application rate 10 ppm a.i., size of lesions 2 days after inoculation
Experimental: After the spray coating has dried on, 2 small pieces of agar covered with growth of Botrytis cinerea are placed on each leaf. The inoculated plants are placed in a darkened chamber at 20° C. and a relative atmospheric humidity of 100%.
2 days after the inoculation, the size of the lesions on the leaves is evaluated.

[3] = system: Sphaerotheca fuliginea; assay: Sphaerotheca test (cucumbers)/preventive; details: evaluated 7 days after inoculation
Experimental: After the spray coating has dried on, the plants are inoculated with an aqueous spore suspension of Sphaerotheca fuliginea. The plants are then placed in a greenhouse at approximately 23° C. and a relative atmospheric humidity of approximately 70%.
The test is evaluated 7 days after the inoculation.

[4] = system: Venturia inaequalis; assay: Venturia test (apples)/preventive; details: Table A, preventive, evaluated 10 days after inoculation
Experimental: After the spray coating has dried on, the plants are inoculated with an aqueous conidia suspension of the causal agent of apple scab (Venturia inaequalis) and then remain for 1 day in an incubation cabinet at approximately 20° C. and a relative atmospheric humidity of 100%.
The plants are then placed in a greenhouse at approximately 21° C. and a relative atmospheric humidity of approximately 90%.
The test is evaluated 10 days after the inoculation.

[5] = Table B1, preventive, application rate 100 ppm a.i.
[6] = Table B2, preventive, application rate 2 ppm a.i.

Row | Structure (SMILES) | Efficacy in % found [1] | Efficacy in % found [3, 5] | Efficacy in % found [3, 6] | further results
1 | CC1(C(=O)Nc2ccc(O)c(Cl)c2Cl)CCCCC1 [F16 fenhexamid, fenhexamid] | 43% | 33% | – | Efficacy in % found [2]: 88%
2 | OC(Cc1ccccc1Cl)(Cn1nc[nH]c1=S)C1(Cl)CC1 (stereo not shown) [F41 prothioconazole, prothioconazole] | – | – | 38% | –
3 | CCCN(CC)CC1COC2(CCC(C(C)(C)C)CC2)O1 (stereo not shown) [F46 spiroxamine, spiroxamine] | 62% | 38% | – | –
4 | CC1COC(Cn2cncn2)(c2ccc(Oc3ccc(Cl)cc3)cc2Cl)O1 (stereo not shown) [F7 difenoconazole, difenoconazole] | – | – | 0% | Efficacy in % found ([4]; application rate 1 ppm a.i.): 20%
5 | CC(C)(C)C(O)(CCc1ccc(Cl)cc1)Cn1cncn1 (stereo not shown) [F47 tebuconazole, tebuconazole] | – | – | 29% | Efficacy in % found ([4]; application rate 2 ppm a.i.): 13%
